Consider five molecules from ChEMBL document CHEMBL1141148, “Antidiabetic activity of passive nonsteroidal glucocorticoid receptor modulators” (J Med Chem, 2005).

A word on the half-life: it is the time in which the quantity being followed falls by half. The low end stands for fast loss, the high end for slow loss. A word on the IC50: it is the midpoint of a concentration-inhibition curve. Higher therefore signals weaker potency.

Series [1] can be described thus: Compound level in liver in SD rats after 7 hr of 5 mg/kg i.v. dose. In kind it is ADME, organism-based. More on the design: dose 5 mg/kg, route intravenous. As to conditions: Sprague-Dawley, rat, iv, read-out: Level.
Series [2] in a line: Half life period of the compound in human liver microsomes was determined. It is filed as ADME, Microsome. A general note: Liver microsomes are vesicles of endoplasmic reticulum, rich in cytochrome P450 enzymes.
The nature of series [3]: Compound level in liver in SD rats after 1 hr of 5 mg/kg i.v. dose. Also on record: dose 5 mg/kg, route intravenous. As to conditions: Sprague-Dawley, rat, iv, read-out: Level. It is filed as ADME, organism-based.
Series [4] can be described thus: Compound level in liver in ob/ob mice after 13 days of 100 mpk oral dose of compound. As to conditions: mouse, 100 mg/kg, read-out: Level. In kind it is ADME.
Series [5] deals with T1, Glucocorticoid receptor (Homo sapiens) (UniProt P04150).
T1 sequence (whole entry): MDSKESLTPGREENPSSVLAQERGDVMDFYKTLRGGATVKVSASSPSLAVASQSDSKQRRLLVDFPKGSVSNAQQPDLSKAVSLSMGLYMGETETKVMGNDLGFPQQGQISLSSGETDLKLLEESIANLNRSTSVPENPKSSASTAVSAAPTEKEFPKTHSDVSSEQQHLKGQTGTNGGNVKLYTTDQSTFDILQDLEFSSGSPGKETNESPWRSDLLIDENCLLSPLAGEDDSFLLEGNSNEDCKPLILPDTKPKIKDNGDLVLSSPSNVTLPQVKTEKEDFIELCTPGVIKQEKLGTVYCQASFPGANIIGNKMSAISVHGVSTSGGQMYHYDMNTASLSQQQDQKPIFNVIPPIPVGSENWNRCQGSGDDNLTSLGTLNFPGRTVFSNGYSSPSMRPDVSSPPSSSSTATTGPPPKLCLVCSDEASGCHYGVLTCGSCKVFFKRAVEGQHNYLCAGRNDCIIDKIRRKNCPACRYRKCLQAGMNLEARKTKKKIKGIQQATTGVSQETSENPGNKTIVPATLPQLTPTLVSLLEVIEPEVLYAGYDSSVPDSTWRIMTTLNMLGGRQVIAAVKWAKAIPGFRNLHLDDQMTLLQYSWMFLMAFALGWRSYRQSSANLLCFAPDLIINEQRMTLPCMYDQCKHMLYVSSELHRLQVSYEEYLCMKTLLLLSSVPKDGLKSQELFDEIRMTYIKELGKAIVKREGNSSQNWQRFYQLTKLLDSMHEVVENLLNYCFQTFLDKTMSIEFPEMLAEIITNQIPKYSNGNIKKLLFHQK
As to conditions: Huh-7.

A short description of series [6]: Free fatty acid (FFA) levels in ob/ob mice after 14 days of oral dose at 100 mpk b.i.d. In kind it is ADME. As to conditions: mouse, in vivo, 100 mg/kg, 336 h.
Series [7] is described as follows: Half life period of the compound in human hepatocytes was determined. In kind it is ADME, cell-based, Liver, Hepatocyte.
Series [8] is described as follows: Compound level in plasma in SD rats after 1 hr of 5 mg/kg i.v. dose. In kind it is ADME, organism-based. Also on record: dose 5 mg/kg, route intravenous. Conditions: Sprague-Dawley, rat, iv, read-out: Level.
The nature of series [9]: Compound level in plasma in SD rats after 7 hr of 5 mg/kg i.v. dose. Conditions: Sprague-Dawley, rat, iv, read-out: Level. It is filed as ADME, organism-based. Also on record: dose 5 mg/kg, route intravenous.
For the next series, the target named is T2, Androgen receptor (Homo sapiens, UniProt P10275).
T2 sequence (P10275 whole entry): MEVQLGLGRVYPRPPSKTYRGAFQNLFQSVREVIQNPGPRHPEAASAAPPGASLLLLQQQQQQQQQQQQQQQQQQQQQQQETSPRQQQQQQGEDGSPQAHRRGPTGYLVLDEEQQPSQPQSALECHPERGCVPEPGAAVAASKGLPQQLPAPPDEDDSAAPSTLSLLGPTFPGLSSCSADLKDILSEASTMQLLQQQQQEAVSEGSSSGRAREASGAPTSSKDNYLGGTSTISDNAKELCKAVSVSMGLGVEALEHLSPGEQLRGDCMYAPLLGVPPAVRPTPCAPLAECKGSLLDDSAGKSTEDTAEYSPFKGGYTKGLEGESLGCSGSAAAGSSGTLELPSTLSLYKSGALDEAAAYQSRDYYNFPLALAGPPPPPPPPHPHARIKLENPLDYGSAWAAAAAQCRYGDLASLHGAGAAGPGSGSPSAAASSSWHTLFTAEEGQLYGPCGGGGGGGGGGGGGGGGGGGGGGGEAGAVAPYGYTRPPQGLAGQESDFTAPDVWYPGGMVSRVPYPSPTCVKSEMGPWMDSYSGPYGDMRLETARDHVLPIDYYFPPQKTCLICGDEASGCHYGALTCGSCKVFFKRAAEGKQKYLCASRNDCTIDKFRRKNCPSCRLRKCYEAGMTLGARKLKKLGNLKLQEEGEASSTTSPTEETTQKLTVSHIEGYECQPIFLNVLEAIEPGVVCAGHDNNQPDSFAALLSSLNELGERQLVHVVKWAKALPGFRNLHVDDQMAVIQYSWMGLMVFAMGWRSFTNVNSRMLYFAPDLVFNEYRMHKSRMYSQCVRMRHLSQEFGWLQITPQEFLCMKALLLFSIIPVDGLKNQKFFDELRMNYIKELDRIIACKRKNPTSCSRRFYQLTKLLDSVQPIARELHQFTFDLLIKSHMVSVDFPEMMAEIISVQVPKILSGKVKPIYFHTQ

Series [10] deals with T3, Mineralocorticoid receptor (Homo sapiens, UniProt P08235).
T3 sequence (P08235 whole entry): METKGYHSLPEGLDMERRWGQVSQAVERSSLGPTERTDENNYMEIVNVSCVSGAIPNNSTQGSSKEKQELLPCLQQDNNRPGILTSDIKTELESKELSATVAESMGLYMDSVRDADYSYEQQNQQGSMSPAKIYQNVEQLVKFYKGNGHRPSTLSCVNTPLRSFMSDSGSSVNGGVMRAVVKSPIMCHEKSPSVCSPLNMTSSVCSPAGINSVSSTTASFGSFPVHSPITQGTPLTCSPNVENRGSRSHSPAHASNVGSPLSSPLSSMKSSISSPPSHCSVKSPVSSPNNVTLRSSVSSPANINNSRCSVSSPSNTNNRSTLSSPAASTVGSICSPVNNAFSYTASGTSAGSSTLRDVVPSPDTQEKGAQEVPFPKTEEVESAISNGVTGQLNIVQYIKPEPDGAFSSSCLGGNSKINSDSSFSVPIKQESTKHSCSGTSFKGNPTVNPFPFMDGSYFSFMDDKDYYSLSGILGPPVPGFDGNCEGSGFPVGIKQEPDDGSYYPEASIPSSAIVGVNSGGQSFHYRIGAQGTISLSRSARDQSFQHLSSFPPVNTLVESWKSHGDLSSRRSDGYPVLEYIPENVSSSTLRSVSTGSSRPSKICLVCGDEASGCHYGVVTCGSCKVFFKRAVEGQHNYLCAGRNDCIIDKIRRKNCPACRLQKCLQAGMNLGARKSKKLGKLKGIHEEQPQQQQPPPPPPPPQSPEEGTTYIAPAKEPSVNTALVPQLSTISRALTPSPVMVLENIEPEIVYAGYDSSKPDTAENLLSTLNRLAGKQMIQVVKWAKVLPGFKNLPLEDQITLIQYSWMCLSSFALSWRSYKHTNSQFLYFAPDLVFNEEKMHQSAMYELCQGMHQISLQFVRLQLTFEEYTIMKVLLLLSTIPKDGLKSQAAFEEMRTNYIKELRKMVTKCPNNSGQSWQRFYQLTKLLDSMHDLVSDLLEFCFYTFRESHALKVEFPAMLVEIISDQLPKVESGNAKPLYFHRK
Put plainly: Inhibition of human mineralocorticoid receptor.

Each structure is given as a SMILES string. The source made the active and inactive calls. The rule behind the calls is not given here.

With `Cc1c(NS(C)(=O)=O)cccc1N(Cc1ccc(Oc2ccc(F)c(OCC(=O)O)c2)cc1)Cc1ccc(F)cc1F`, the concentration at 7 h stood at 40000 ng/g in series [1] and 650 ng/mL in series [9]. In addition, the half-life in series [2] was 2.3 h; in [7] it was 9.1 h. The concentration at 1 h in series [3] came to 74000 ng/g; in series [8] it was 1600 ng/mL. Besides, the concentration at 312 h in [4] amounted to 157000 ng/g. In series [5], the Agonistic activity result is “inactive”. In [6], this molecule had a Level of 1.01 mequiv/L.

For the molecule `Cc1c(NS(C)(=O)=O)cccc1N(Cc1ccc(Oc2ccc(Cl)c(OCC(=O)O)c2)cc1)Cc1ccc(F)cc1F`, the figures for the IC50 (at Androgen receptor; in series [10]) were 3.6 µM and 1 µM, respectively. Further, the Agonistic activity entry in [5] is “inactive”.

Take `Cc1c(NS(C)(=O)=O)cccc1N(Cc1ccccc1)Cc1ccc(Oc2cccc(OCCCC(=O)NCCCC(=O)O)c2)cc1`: the IC50 was determined as 1.6 µM against Androgen receptor and 0.12 µM in series [10]. In addition, in series [5], the Agonistic activity result was “inactive”.

With `Cc1c(NS(C)(=O)=O)cccc1N(Cc1ccccc1)Cc1ccc(Oc2ccc(OCC(=O)O)cc2)cc1`, the IC50 turned out to be 11.7 µM against Androgen receptor and 0.69 µM in [10]. In addition, the concentration at 7 h in [1] was found to be 3800 ng/g; in [9], 10 ng/mL. Besides, the half-life in series [2] was 8.9 h; in [7], 31.1 h. The concentration at 1 h in series [3] turned out to be 20000 ng/g; in [8], 30 ng/mL. Besides, the concentration at 312 h in [4] came to 207000 ng/g.

For `CC#C[C@]1(O)CC[C@H]2[C@@H]3CCC4=CC(=O)CC[C@]4(Cc4ccc(C)cc4)C3=CC[C@@]21C`, the IC50 was 6.5 µM on Androgen receptor and 6.3 µM in series [10].
